Measurements from patent US12043630B2, “Polymorphic form of TG02 for treating cancer” (Cothera Bioscience, Inc., priority 2017, dated 2024).
Counter-ions that a name gives are not always drawn.

Test: Polymorphic form conversion over time
Type: physicochemical
Procedure: Preparation: A solution containing TG02·HCl (77.1 g), EtOH (2340 mL) and H2O (185 mL) was heated at reflux for 0.5 h. The mixture was cooled to […] and stirred for 2 h. The mixture was filtered, and the filter cake was washed with EtOH and dried to give TG02 Form VIII (HCl).

Question: With `CN1C/C=C/CCOc2cccc(c2)-c2ccnc(n2)Nc2cccc(c2)C1` [TG02 Form VIII (HCl), (16E)-14-methyl-20-oxa-5,7,14,26-tetraazatetracyclo[19.3.1.1(2,6).1(8,12)]heptacosa-1(25),2(26),3,5,8(27),9,11,16,21,23-decaene] as the compound, how does the “Form conversion over time” value read?
Answer: gradually converted to TG02 Form VI (HCl) over time
